Results from patent publication US8063107B2, “Use of trans-pellitorin as flavor substance” (Symrise AG, priority 2002, dated 2011).
Entries after “also recorded” stand apart in the source; their conditions may differ. Like-named read-outs stand apart in the source and are kept apart here.

What was measured:
[1] = cited from earlier work
[2] = system: group of 6 to 8 testers; test: Tasting of trans-pellitorin in 11 wt. % sugar solution by a group of testers; assay type: in vivo; conditions: for sensory impression on tasting: approximately 5 ml swallowed
Description: The trans-pellitorin was dissolved in ethanol and the ethanolic solution was then diluted with an 11 wt. % sugar solution (final concentration: c). For tasting, respectively approximately 5 ml of the sugar solution was respectively swallowed.

| Structure (SMILES) | sensory impression ([1]; Lebensm.-Wiss. U.-Technol. 1992, 25, 417-421) | sensory impression on tasting ([2]; c=10 ppm in 11 wt. % sugar solution) | sensory impression on tasting ([2]; c=20 ppm in 11 wt. % sugar solution) | concentration in the final product at which a saliva inducing effect only is observed, no additional sensory impressions ([2]; final product, e.g. finished preparation) | sensory impression in taste research ([2]; taste research, general statement) | sensory impression ([1]; J. Agric. Food Chem. 1981, 29, 115, Fitoterapia 2001, 72, 197) | sensory impression on tasting in the pure state ([1]; pure state, J. Am. Chem. Soc. 1953, 75, 2584-2586) |
| --- | --- | --- | --- | --- | --- | --- | --- |
| C/C=C/C=C\CC/C=C/C(=O)NCC(C)C [spilanthol, 2E,6Z,8E-decatrienoic acid-N-isobutylamide, reference compound] | strongly salivation inducing and tingly or prickly; also recorded: spicy-hot and strongly numbing as well as an astringent | – | – | – | – | – | – |
| CCCCC/C=C/C=C/C(=O)NCC(C)C [trans-pellitorin, 2E,4E-decadienoic acid-N-isobutylamide] | – | salivation inducing, slightly prickly, not spicy hot | salivation inducing, slightly numbing, slightly fatty, weakly fruity, prickly, persistent, not spicy hot | below 20 ppm | pleasant saliva-inducing and slightly prickly sensory impression, with relatively prolonged effect | primarily numbing | besides an elevated saliva flow, a strong burning effect on the tongue |
